Measurements from ChEMBL document CHEMBL5696442, “Discovery of type II inhibitors of TGFβ-activated kinase 1 (TAK1) and mitogen-activated protein kinase kinase kinase kinase 2 (MAP4K2)” (J Med Chem, 2015).
Active and inactive are the calls of the source. The calls are words filed in the database; no cut-off is given here.

What was measured:
[1] = biological target: Glycogen synthase kinase-3 alpha (Homo sapiens) (UniProt P49840); experiment: Inhibition of GSK3A (unknown origin) at 10 uM by Ambit Kinomescan binding assay
[2] = biological target: T1, Serine/threonine-protein kinase 3 (Homo sapiens) (UniProt Q13188); experiment: Inhibition of MST2 (unknown origin) at 10 uM by Ambit Kinomescan binding assay
T1 sequence (whole entry): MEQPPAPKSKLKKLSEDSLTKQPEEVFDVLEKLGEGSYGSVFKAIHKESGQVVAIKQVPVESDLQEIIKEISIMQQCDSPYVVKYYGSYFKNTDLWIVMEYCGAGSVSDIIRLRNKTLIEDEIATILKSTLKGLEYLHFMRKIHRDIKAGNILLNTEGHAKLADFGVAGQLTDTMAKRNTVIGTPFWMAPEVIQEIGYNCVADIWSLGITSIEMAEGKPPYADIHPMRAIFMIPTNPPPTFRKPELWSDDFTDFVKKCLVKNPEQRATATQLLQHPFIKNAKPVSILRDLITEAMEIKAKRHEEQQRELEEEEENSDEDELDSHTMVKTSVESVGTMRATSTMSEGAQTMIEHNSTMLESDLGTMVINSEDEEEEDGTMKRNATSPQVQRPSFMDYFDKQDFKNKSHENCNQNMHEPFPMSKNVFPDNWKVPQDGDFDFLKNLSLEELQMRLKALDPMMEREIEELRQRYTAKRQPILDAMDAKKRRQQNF

[3] = biological target: T2, Acylglycerol kinase, mitochondrial (Homo sapiens) (UniProt Q53H12); experiment: Inhibition of AGK ATP labeling site in human Huh-7 cells at 10 uM by KiNativ Profiling analysis relative to control; format: cell-based
T2 sequence (whole entry): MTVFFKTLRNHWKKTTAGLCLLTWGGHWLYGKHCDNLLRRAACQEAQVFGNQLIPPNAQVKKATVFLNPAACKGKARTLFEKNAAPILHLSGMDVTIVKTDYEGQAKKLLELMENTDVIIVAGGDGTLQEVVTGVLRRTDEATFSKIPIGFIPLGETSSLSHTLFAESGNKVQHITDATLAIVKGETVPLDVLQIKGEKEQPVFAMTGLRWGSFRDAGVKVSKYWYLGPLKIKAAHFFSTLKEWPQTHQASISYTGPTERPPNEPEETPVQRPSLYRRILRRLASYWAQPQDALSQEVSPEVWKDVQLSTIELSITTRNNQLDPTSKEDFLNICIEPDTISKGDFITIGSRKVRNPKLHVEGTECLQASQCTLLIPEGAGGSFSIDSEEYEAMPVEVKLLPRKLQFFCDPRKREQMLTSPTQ

[4] = biological target: Serine/threonine-protein kinase ATR (Homo sapiens) (UniProt Q13535); experiment: Inhibition of ATR ATP labeling site in human A-375 cells at 0.5 uM by KiNativ Profiling analysis relative to control; format: cell-based
[5] = biological target: Hepatocyte growth factor receptor (Homo sapiens) (UniProt P08581); experiment: Inhibition of MET (unknown origin) at 10 uM by Ambit Kinomescan binding assay
[6] = system: Tyrosine-protein kinase ABL1 (Homo sapiens), P00519 [Y253F]; experiment: Inhibition of ABL1 Y253F mutant (unknown origin) at 10 uM by Ambit Kinomescan binding assay relative to control
[7] = biological target: Proto-oncogene tyrosine-protein kinase receptor Ret (Homo sapiens) (UniProt P07949); experiment: Inhibition of RET (unknown origin) at 1 uM by Ambit Kinomescan binding assay relative to control; values are per cent of control
[8] = biological target: Ankyrin repeat and protein kinase domain-containing protein 1 (Homo sapiens) (UniProt Q8NFD2); experiment: Inhibition of ANKK1 (unknown origin) at 1 uM by Ambit Kinomescan binding assay relative to control
[9] = biological target: Mitogen-activated protein kinase 4 (Homo sapiens) (UniProt P31152); experiment: Inhibition of ERK4 (unknown origin) at 1 uM by Ambit Kinomescan binding assay relative to control
[10] = biological target: Tyrosine-protein kinase TXK (Homo sapiens) (UniProt P42681); experiment: Inhibition of TXK (unknown origin) at 1 uM by Ambit Kinomescan binding assay relative to control
[11] = biological target: T3, Mitogen-activated protein kinase 13 (Homo sapiens) (UniProt O15264); experiment: Inhibition of p38delta Lys2 labeling site in human Huh-7 cells at 1 uM by KiNativ Profiling analysis relative to control; format: cell-based
T3 sequence (whole entry): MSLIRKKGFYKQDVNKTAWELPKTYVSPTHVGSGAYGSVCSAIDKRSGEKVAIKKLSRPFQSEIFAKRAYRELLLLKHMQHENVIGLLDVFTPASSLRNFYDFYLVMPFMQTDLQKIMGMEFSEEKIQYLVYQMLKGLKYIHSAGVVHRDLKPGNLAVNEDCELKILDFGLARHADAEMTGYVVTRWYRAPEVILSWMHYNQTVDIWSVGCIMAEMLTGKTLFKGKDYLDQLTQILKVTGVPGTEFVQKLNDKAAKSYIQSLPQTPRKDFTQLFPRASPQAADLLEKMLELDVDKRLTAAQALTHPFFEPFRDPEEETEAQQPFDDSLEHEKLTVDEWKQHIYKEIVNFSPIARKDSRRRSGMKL

[12] = biological target: T4, Serine/threonine-protein kinase D2 (Homo sapiens) (UniProt Q9BZL6); experiment: Inhibition of PKD2 Lys2 labeling site in human Huh-7 cells at 1 uM by KiNativ Profiling analysis relative to control; format: cell-based
T4 sequence (whole entry): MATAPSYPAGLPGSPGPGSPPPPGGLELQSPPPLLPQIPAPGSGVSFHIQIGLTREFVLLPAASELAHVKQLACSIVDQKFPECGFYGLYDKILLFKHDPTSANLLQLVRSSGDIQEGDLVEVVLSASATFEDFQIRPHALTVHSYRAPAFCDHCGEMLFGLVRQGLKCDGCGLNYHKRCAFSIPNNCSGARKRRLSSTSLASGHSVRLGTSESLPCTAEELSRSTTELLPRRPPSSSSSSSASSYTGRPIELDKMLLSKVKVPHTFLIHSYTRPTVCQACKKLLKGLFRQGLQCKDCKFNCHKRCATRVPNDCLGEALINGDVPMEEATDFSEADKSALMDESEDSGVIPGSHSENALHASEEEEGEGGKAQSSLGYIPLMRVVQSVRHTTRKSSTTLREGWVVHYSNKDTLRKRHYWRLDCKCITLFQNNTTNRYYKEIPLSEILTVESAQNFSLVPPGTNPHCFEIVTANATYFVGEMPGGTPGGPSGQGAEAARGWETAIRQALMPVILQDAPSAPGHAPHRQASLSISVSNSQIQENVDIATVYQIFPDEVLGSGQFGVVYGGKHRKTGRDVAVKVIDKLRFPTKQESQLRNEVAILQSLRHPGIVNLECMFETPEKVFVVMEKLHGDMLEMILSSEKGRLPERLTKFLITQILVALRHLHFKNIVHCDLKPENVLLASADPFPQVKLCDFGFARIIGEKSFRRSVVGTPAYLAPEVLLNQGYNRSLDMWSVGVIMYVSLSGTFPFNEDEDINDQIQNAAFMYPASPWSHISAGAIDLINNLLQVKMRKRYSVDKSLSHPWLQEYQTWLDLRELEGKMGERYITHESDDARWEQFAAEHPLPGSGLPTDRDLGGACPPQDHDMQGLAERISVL

Sequence of Hepatocyte growth factor receptor (Homo sapiens) (P08581 whole entry): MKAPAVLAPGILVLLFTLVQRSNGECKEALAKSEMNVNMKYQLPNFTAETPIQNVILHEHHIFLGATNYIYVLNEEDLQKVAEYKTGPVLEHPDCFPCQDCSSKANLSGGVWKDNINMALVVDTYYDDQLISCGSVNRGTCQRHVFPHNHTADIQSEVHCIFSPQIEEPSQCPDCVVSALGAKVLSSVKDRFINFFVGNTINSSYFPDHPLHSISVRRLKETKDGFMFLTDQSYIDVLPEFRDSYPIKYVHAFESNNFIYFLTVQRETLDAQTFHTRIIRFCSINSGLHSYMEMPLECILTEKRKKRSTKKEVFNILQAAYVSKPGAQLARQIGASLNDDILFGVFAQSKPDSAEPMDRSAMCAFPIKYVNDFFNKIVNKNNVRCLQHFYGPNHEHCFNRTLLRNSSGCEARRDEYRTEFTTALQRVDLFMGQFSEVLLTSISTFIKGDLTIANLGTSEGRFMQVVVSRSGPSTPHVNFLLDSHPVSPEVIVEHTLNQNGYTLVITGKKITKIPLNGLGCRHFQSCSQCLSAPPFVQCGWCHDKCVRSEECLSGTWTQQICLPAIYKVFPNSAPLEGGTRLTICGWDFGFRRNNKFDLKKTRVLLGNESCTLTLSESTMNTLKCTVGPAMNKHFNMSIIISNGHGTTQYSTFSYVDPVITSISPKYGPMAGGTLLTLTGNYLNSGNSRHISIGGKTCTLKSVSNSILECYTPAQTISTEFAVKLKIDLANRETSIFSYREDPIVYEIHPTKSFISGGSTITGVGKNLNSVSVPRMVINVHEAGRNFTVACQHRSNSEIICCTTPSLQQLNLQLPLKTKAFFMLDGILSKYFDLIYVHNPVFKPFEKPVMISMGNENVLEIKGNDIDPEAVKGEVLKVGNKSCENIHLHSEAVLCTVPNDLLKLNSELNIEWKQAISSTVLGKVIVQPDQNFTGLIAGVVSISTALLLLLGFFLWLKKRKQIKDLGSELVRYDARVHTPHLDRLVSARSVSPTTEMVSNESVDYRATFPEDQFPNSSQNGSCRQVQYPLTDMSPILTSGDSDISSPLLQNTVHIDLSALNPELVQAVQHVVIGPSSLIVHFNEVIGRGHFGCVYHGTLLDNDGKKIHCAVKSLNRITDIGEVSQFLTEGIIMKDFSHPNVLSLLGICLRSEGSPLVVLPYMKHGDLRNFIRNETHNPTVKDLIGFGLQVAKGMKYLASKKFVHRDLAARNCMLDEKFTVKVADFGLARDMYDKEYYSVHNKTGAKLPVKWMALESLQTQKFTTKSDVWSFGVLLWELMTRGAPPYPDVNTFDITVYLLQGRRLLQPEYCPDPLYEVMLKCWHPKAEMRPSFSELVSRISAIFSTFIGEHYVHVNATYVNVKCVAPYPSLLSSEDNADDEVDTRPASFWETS
Sequence of Proto-oncogene tyrosine-protein kinase receptor Ret (Homo sapiens) (P07949 whole entry, the tested form may be a part): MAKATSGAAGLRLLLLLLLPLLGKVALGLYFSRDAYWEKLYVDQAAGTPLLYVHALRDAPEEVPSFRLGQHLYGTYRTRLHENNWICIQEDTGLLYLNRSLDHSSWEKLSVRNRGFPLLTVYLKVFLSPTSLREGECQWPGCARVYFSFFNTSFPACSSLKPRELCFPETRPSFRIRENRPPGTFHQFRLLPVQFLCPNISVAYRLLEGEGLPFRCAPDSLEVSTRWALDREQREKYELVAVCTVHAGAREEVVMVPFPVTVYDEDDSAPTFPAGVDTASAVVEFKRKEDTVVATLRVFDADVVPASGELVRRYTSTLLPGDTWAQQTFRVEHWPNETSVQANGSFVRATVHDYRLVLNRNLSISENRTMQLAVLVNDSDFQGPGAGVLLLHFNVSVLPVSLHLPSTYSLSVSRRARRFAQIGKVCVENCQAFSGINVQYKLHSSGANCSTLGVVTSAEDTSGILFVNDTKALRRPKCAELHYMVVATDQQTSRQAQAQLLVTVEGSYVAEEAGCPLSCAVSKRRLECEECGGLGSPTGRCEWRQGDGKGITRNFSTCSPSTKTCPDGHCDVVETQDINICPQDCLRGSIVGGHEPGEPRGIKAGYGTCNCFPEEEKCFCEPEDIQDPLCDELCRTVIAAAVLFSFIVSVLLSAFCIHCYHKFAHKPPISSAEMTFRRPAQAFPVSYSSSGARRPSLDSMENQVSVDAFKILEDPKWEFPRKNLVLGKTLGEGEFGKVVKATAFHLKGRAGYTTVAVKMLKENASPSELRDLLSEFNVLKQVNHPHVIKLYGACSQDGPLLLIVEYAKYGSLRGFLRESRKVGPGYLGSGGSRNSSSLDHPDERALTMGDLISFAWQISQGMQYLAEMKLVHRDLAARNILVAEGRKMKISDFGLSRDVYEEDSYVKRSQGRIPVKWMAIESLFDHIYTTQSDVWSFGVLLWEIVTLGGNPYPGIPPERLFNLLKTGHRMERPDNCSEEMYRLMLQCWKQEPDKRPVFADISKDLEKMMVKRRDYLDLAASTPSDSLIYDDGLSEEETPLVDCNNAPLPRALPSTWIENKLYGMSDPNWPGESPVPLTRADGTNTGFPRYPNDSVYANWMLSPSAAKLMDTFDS
Sequence of Ankyrin repeat and protein kinase domain-containing protein 1 (Homo sapiens) (Q8NFD2 whole entry, the tested form may be a part): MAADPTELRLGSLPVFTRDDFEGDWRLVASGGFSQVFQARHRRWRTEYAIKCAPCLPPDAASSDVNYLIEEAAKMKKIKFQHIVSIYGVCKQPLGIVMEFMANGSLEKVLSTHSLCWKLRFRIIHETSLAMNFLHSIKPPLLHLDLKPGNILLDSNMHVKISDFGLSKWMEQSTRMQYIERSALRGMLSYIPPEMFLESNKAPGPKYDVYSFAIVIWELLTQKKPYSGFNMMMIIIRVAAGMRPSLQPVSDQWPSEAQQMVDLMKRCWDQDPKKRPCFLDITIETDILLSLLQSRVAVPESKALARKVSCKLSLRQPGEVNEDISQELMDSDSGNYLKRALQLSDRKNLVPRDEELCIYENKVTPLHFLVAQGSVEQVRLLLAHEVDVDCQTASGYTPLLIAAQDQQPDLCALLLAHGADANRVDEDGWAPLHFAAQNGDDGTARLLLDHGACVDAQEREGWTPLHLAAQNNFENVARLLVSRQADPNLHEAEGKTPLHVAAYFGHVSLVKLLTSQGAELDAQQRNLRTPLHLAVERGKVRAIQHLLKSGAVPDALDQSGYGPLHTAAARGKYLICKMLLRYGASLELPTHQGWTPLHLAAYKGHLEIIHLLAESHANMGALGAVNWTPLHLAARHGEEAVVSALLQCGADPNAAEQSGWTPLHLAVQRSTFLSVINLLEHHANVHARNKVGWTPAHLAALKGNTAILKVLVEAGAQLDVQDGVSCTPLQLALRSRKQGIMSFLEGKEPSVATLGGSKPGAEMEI
Sequence of Mitogen-activated protein kinase 4 (Homo sapiens) (P31152 whole entry): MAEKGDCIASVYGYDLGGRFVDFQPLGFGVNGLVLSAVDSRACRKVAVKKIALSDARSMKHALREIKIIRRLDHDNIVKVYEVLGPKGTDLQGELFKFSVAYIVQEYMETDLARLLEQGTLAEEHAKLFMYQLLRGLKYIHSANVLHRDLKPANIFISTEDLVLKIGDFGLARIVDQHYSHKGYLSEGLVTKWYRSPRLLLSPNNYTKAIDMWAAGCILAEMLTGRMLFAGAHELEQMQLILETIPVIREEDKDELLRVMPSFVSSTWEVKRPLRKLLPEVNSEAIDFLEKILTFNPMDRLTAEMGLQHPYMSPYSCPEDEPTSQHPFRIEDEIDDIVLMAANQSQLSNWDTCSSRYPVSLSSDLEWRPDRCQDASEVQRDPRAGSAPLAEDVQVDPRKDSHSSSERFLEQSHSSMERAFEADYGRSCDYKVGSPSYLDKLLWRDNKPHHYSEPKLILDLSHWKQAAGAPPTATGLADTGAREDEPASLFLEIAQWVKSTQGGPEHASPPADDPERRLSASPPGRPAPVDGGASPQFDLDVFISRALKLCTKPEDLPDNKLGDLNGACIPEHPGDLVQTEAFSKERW
Sequence of Glycogen synthase kinase-3 alpha (Homo sapiens) (P49840 2-483 limits assumed): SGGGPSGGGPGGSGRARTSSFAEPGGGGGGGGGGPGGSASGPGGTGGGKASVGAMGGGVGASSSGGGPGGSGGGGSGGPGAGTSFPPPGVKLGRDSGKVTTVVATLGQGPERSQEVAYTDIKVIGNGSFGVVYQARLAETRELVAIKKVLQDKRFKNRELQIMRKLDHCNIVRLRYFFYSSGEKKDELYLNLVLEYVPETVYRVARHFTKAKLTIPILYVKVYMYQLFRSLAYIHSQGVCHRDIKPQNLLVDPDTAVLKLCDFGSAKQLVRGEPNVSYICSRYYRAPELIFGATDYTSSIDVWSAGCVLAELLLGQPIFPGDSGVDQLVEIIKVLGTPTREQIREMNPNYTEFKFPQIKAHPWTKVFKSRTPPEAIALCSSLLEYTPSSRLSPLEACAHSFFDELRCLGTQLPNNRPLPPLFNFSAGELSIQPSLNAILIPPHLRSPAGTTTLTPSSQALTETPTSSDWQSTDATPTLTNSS
Sequence of Tyrosine-protein kinase TXK (Homo sapiens) (P42681 whole entry): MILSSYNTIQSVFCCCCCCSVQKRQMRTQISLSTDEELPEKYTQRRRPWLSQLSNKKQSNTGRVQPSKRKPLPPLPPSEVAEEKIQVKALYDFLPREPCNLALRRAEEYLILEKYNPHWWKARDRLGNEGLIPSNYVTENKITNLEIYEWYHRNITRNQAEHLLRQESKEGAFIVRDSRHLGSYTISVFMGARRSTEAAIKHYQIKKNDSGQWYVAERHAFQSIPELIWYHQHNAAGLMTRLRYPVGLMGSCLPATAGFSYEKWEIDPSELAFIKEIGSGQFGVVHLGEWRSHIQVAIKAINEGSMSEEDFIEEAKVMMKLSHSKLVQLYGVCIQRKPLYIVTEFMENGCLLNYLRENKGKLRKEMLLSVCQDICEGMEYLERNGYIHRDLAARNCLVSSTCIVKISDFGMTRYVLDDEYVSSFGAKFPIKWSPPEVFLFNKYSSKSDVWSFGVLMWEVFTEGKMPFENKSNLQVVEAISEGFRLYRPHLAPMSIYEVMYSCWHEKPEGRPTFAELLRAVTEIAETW

CCN1CCN(Cc2ccc(NC(=O)c3ccc(C)c(Oc4ccnc5[nH]ccc45)c3)cc2C(F)(F)F)CC1
inhibition [1]: inactive | inhibition [2]: inactive | inhibition [3]: inactive | inhibition [4]: 5.1% | inhibition [5]: inactive | inhibition [6]: 1.1%

CCN1CCN(Cc2ccc(NC(=O)c3ccc(C)c(/C=C/c4cnc5[nH]ccc5c4OC)c3)cc2C(F)(F)F)CC1
percent of control [7]: 0% | inhibition [8]: 6% | inhibition [9]: 77% | inhibition [10]: 1.4%

CNc1cc(Oc2cc(C(=O)Nc3cc(N4CCN(C)CC4)cc(C(F)(F)F)c3)ccc2C)ncn1
inhibition [11]: 13% | inhibition [12]: 9%
